Data taken from ChEMBL document CHEMBL4715724, “Novel 5-substituted-2-anilinoquinolines with 3-(morpholino or 4-methylpiperazin-1-yl)propoxy moiety as broad spectrum antiproliferative agents: Synthesis, cell based assays and kinase screening” (Bioorg Med Chem Lett, 2016).

Key:
KM12 = assay: cells; assay type: functional; settings: Homo sapiens, time 48 hrs
Description: Growth inhibition of human KM12 cells incubated for 48 hrs by sulforhodamine B assay

[1] = target: Fibroblast growth factor receptor 1 (Homo sapiens) (UniProt P11362); assay: Inhibition of human FGFR1 assessed as residual activity at 10 uM relative to control
[2] = test system: Panel renal (Carcinoma cell lines); assay: cells; assay type: functional; settings: Homo sapiens, time 48 hrs
Description: Growth inhibition of human Panel renal (Carcinoma cell lines) incubated for 48 hrs by sulforhodamine B assay

[3] = test system: Panel ovarian (Carcinoma cell lines); assay: cells; assay type: functional; settings: Homo sapiens, time 48 hrs
Description: Growth inhibition of human Panel ovarian (Carcinoma cell lines) incubated for 48 hrs by sulforhodamine B assay

NCI-H226 = assay: cells; assay type: functional; settings: Homo sapiens, time 48 hrs
Description: Growth inhibition of human NCI-H226 cells incubated for 48 hrs by sulforhodamine B assay

[4] = test system: PI3-kinase p110-alpha/p85-alpha (Homo sapiens), P27986+P42336 [H1047R]; assay: Inhibition of p110alpha/p85alpha H1047R mutant (unknown origin) at 10 uM relative to control; assay type: protein-complex assay
[5] = test system: Panel leukemia (Carcinoma cell lines); assay: cells; assay type: functional; settings: Homo sapiens, time 48 hrs
Description: Growth inhibition of human Panel leukemia (Carcinoma cell lines) incubated for 48 hrs by sulforhodamine B assay

OVCAR-4 = assay: cells; assay type: functional; settings: Homo sapiens, time 48 hrs
Description: Growth inhibition of human OVCAR-4 cells incubated for 48 hrs by sulforhodamine B assay

[6] = target: Cyclin-dependent kinase 2/cyclin E1 (Homo sapiens) (UniProt P24864+P24941); assay: Inhibition of full length C-terminal His6-tagged human CDK2/full length N-terminal GST-tagged human Cyclin E expressed in baculovirus infected Sf21 insect cells assessed as residual activity at 10 uM relative to control
SNB-75 = assay: cells; assay type: functional; settings: Homo sapiens, time 48 hrs
Description: Growth inhibition of human SNB-75 cells incubated for 48 hrs by sulforhodamine B assay

UO-31 = assay: cells; assay type: functional; settings: Homo sapiens, time 48 hrs
Description: Growth inhibition of human UO-31 cells incubated for 48 hrs by sulforhodamine B assay

[7] = target: Receptor-type tyrosine-protein kinase FLT3 (Homo sapiens) (UniProt P36888); assay: Inhibition of human FLT3 assessed as residual activity at 10 uM relative to control
[8] = target: Inhibitor of nuclear factor kappa-B kinase subunit alpha (Homo sapiens) (UniProt O15111); assay: Inhibition of human IKKalpha at 10 uM relative to control
[9] = target: Ephrin type-B receptor 2 (Homo sapiens) (UniProt P29323); assay: Inhibition of N-terminal His6-tagged human EphB2 (560 to end residues) expressed in baculovirus-infected Sf21 cells assessed as residual activity at 10 uM relative to control
Sequence of Ephrin type-B receptor 2 (Homo sapiens) (P29323 whole entry): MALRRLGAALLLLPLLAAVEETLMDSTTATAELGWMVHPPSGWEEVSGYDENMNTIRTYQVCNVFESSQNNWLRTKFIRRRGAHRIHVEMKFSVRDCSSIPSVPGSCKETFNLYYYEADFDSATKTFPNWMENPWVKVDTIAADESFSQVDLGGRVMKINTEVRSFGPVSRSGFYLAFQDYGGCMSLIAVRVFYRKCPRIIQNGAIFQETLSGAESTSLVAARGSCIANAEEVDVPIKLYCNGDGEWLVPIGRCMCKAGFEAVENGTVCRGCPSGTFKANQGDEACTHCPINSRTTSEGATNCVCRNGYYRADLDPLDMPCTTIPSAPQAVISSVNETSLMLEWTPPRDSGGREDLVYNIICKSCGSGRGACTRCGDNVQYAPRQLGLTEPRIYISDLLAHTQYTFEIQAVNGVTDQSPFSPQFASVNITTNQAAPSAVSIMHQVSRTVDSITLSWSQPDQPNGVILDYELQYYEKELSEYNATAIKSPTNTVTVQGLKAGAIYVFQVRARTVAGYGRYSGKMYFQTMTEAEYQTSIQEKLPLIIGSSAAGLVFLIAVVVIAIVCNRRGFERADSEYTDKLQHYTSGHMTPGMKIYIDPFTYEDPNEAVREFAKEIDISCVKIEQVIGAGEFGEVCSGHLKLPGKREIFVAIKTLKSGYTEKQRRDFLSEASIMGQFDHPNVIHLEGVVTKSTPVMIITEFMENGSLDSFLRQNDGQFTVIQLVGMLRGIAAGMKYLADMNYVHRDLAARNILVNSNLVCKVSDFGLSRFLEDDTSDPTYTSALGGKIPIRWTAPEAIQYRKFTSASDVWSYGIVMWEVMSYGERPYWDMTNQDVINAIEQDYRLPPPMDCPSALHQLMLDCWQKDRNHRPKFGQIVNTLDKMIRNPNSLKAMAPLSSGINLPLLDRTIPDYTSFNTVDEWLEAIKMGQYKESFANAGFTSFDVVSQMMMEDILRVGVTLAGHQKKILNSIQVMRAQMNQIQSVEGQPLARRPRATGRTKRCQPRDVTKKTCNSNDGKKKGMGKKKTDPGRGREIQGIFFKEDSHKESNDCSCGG

HCT-116 = assay: cells; assay type: functional; settings: Homo sapiens, time 48 hrs
Description: Growth inhibition of human HCT-116 cells incubated for 48 hrs by sulforhodamine B assay

[10] = target: RAF proto-oncogene serine/threonine-protein kinase (Homo sapiens) (UniProt P04049); assay: Inhibition of recombinant N-terminal GST-tagged human CRAF (306 to 648 residues) expressed in Sf9 cells assessed as residual activity at 10 uM relative to control
Sequence of RAF proto-oncogene serine/threonine-protein kinase (Homo sapiens) (P04049 whole entry, the tested form may be a part): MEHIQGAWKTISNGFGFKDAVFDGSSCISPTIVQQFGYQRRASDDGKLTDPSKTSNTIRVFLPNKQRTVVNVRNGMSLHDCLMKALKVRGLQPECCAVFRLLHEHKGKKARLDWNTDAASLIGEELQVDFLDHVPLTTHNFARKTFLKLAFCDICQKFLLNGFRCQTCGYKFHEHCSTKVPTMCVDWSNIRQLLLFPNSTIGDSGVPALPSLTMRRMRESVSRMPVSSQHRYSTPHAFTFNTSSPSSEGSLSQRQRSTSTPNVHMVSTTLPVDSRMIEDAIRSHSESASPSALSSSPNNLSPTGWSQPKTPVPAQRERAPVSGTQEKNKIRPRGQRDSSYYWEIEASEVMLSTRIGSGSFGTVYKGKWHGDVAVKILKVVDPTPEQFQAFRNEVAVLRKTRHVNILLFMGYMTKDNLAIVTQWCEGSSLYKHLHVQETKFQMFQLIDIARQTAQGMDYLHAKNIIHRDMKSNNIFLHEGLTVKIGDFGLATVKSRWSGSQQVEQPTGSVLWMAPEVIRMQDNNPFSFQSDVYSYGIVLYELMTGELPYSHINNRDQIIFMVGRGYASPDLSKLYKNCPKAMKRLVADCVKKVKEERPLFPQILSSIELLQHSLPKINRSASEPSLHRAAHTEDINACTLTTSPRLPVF

UACC-62 = assay: cells; assay type: functional; settings: Homo sapiens, time 48 hrs
Description: Growth inhibition of human UACC-62 cells incubated for 48 hrs by sulforhodamine B assay

[11] = target: Aurora kinase A (Homo sapiens) (UniProt O14965); assay: Inhibition of human recombinant Aurora A assessed as residual activity at 10 uM relative to control
Sequence of Aurora kinase A (Homo sapiens) (O14965 whole entry): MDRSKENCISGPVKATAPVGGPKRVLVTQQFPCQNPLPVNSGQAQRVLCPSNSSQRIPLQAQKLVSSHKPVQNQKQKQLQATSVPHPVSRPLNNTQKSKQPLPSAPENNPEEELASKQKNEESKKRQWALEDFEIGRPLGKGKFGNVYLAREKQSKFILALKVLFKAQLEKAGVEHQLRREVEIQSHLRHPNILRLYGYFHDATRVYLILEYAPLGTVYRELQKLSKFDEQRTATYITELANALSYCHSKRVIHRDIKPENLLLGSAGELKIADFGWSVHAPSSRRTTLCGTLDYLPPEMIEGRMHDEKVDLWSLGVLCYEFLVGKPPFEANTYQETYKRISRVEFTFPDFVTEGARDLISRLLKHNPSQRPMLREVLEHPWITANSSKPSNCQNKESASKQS

OVCAR-8 = assay: cells; assay type: functional; settings: Homo sapiens, time 48 hrs
Description: Growth inhibition of human OVCAR-8 cells incubated for 48 hrs by sulforhodamine B assay

[12] = Cytotoxicity against human HFF-1 cells assessed as cell growth inhibition at 0.1 uM by MTT assay relative to control; assay type: cell-based; settings: read-out: GI
[13] = target: Macrophage colony-stimulating factor 1 receptor (Homo sapiens) (UniProt P07333); assay: Inhibition of recombinant N-terminal His6-tagged human FMS (538 to end residues) expressed in baculovirus infected Sf21 insect cells assessed as residual activity at 10 uM relative to control
Sequence of Macrophage colony-stimulating factor 1 receptor (Homo sapiens) (P07333 whole entry): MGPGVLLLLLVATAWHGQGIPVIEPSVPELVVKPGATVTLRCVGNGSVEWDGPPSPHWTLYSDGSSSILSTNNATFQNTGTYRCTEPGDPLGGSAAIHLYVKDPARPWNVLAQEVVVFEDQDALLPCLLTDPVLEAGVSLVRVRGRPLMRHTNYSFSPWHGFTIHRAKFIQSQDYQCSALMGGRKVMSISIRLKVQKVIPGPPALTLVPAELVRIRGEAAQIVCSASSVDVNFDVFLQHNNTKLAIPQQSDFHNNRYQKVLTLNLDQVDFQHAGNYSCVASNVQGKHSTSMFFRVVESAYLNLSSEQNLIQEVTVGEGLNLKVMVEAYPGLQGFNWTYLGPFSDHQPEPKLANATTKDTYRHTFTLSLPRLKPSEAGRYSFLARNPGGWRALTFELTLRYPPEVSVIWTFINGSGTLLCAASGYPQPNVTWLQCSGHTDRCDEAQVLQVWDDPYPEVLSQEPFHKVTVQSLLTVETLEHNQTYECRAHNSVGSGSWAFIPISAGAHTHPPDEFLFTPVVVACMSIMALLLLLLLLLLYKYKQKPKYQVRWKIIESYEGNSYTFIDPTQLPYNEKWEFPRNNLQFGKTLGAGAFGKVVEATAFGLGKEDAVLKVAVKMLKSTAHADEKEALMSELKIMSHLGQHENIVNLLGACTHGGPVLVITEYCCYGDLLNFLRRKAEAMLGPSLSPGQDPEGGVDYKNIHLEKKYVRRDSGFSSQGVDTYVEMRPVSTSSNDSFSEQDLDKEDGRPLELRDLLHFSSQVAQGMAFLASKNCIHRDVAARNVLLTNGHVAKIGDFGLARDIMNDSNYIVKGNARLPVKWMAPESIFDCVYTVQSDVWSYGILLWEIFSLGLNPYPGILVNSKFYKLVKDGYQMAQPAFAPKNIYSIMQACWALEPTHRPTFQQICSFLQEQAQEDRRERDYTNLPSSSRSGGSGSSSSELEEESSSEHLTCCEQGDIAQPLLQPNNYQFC

UACC-257 = assay: cells; assay type: functional; settings: Homo sapiens, time 48 hrs
Description: Growth inhibition of human UACC-257 cells incubated for 48 hrs by sulforhodamine B assay

[14] = target: CDK3/Cyclin E (Homo sapiens) (UniProt P24864+Q00526); assay: Inhibition of full length C-terminal His6-tagged human CDK3/full length N-terminal GST-tagged human Cyclin E expressed in baculovirus infected Sf21 insect cells assessed as residual activity at 10 uM relative to control
[15] = target: Calcium/calmodulin-dependent protein kinase type II subunit beta (Homo sapiens) (UniProt Q13554); assay: Inhibition of CaMK2beta (unknown origin) at 10 uM relative to control
[16] = test system: PI3-kinase p110-alpha/p85-alpha (Homo sapiens), P27986+P42336 [E542K]; assay: Inhibition of p110alpha/p85alpha E542K mutant (unknown origin) at 10 uM relative to control; assay type: protein-complex assay
[17] = target: Serine/threonine-protein kinase B-raf (Homo sapiens) (UniProt P15056); assay: Inhibition of recombinant N-terminal GST-tagged human BRAF (417 to 766 residues) expressed in Sf9 cells assessed as residual activity at 10 uM relative to control
Sequence of Serine/threonine-protein kinase B-raf (Homo sapiens) (P15056 whole entry, the tested form may be a part): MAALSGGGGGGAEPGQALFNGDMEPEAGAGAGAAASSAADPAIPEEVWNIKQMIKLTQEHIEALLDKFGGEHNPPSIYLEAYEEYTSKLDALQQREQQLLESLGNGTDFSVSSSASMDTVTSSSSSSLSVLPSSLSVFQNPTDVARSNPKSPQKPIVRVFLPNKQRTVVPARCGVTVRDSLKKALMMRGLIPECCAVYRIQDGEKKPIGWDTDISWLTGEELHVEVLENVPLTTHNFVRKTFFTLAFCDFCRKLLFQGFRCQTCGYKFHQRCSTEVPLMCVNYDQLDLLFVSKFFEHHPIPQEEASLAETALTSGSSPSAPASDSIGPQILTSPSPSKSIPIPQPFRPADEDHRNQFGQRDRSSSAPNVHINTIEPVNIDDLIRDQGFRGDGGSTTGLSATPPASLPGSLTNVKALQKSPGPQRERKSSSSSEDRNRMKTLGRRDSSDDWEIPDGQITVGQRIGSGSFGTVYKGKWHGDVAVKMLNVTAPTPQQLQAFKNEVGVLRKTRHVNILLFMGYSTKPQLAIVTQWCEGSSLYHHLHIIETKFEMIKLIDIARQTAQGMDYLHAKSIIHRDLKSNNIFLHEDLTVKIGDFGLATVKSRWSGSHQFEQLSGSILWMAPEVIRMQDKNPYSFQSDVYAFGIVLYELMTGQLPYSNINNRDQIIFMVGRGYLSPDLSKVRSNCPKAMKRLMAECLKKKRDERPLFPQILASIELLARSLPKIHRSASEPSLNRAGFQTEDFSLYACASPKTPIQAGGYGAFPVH

[18] = test system: Panel NCI-60 (60 carcinoma cell lines); assay: cells; assay type: functional; settings: Homo sapiens, time 48 hrs
Description: Growth inhibition of human Panel NCI-60 (60 carcinoma cell lines) incubated for 48 hrs by sulforhodamine B assay

[19] = target: Fibroblast growth factor receptor 3 (Homo sapiens) (UniProt P22607); assay: Inhibition of N-terminal His6-tagged human FGFR3 (447 to 761 residues) expressed in Sf21 cells assessed as residual activity at 10 uM relative to control
Sequence of Fibroblast growth factor receptor 3 (Homo sapiens) (P22607 23-806 limits assumed): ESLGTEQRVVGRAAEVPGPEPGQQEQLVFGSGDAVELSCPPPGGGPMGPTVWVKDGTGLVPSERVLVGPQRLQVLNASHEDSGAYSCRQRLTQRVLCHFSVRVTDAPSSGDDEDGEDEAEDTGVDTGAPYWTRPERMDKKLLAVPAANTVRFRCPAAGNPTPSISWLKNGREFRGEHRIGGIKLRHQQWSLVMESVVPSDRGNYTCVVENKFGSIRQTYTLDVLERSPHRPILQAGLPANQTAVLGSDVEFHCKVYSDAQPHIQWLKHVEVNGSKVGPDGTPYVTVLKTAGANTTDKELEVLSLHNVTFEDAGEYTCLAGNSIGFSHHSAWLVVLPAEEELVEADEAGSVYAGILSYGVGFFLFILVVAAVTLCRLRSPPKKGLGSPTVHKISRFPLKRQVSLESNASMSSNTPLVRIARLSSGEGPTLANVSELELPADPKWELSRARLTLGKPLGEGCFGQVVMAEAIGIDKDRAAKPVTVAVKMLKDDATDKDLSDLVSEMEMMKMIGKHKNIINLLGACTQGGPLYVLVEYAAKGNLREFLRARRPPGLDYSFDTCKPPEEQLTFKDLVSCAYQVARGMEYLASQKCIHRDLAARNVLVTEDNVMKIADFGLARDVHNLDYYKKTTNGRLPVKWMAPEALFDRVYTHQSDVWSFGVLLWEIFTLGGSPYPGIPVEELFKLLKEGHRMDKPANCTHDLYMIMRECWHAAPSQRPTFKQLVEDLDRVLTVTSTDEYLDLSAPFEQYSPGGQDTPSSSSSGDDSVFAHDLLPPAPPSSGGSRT

[20] = target: Insulin-like growth factor 1 receptor (Homo sapiens) (UniProt P08069); assay: Inhibition of human IGF1R assessed as residual activity at 10 uM relative to control
[21] = target: Tyrosine-protein kinase ABL1 (Homo sapiens) (UniProt P00519); assay: Inhibition of recombinant N-terminal His6-tagged human ABL (27 to end residues) expressed in baculovirus infected Sf21 insect cells assessed as residual activity at 10 uM relative to control
[22] = target: MAP kinase-activated protein kinase 2 (Homo sapiens) (UniProt P49137); assay: Inhibition of human MAPKAPK2 expressed in Escherichia coli at 10 uM relative to control
Sequence of MAP kinase-activated protein kinase 2 (Homo sapiens) (P49137 whole entry, looked up): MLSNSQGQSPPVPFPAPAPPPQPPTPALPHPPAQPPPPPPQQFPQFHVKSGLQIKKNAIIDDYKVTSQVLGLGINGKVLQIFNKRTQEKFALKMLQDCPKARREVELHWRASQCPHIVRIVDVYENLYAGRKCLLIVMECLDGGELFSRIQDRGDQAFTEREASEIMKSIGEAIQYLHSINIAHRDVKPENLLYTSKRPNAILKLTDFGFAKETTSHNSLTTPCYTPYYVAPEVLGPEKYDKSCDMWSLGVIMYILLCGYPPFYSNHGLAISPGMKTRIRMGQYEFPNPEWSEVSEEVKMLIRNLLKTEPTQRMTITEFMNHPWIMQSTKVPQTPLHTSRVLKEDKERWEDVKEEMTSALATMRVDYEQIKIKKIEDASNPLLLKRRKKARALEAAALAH

LOX IMVI = assay: cells; assay type: functional; settings: Homo sapiens, time 48 hrs
Description: Growth inhibition of human LOX IMVI cells incubated for 48 hrs by sulforhodamine B assay

SR = assay: cells; assay type: functional; settings: Homo sapiens, time 48 hrs
Description: Growth inhibition of human SR cells incubated for 48 hrs by sulforhodamine B assay

[23] = test system: Serine/threonine-protein kinase B-raf (Homo sapiens), P15056 [V600E]; assay: Inhibition of recombinant N-terminal GST-tagged human BRAF V599E mutant (417 to 766 residues) expressed in Sf9 cells assessed as residual activity at 10 uM relative to control
[24] = target: Serine/threonine-protein kinase mTOR (Homo sapiens) (UniProt P42345); assay: Inhibition of human mTOR at 10 uM relative to control
K562 = assay: cells; assay type: functional; settings: Homo sapiens, time 48 hrs
Description: Growth inhibition of human K562 cells incubated for 48 hrs by sulforhodamine B assay

[25] = target: Rho-associated protein kinase 1 (Homo sapiens) (UniProt Q13464); assay: Inhibition of auto-activated recombinant N-terminal His6-tagged human ROCK1 (17 to 535 residues) expressed in baculovirus infected Sf21 insect cells at 10 uM incubated in presence of Mg/ATP relative to control
[26] = Cytotoxicity against human HFF-1 cells assessed as cell growth inhibition by MTT assay; assay type: cell-based
[27] = Cytotoxicity against human HFF-1 cells assessed as cell growth inhibition at 1 uM by MTT assay relative to control; assay type: cell-based; settings: read-out: GI

## CN1CCN(CCCOc2cccc3nc(Nc4ccc(Cl)c(C(F)(F)F)c4)ccc23)CC1
KM12
  GI50: 1740 nM
[1]
  Activity: < 60%
[2]
  GI50: 1620 nM
  LC50 (lethal concentration 50%): 6460 nM
  TGI: 3230 nM
[3]
  GI50: 1980 nM
  LC50: 10300 nM
  TGI: 4180 nM
NCI-H226
  GI50: 2070 nM
[4]
  inhibition: < 60%
[5]
  GI50: 1380 nM
  LC50 (50% lethal concentration): 7780 nM
  TGI: 3480 nM
OVCAR-4
  GI50: 2730 nM
[6]
  Activity: < 60%
SNB-75
  GI50: 1520 nM
UO-31
  GI50: 1460 nM
[7]
  Activity: 66%
[8]
  inhibition: < 60%
[9]
  Activity: < 60%
HCT-116
  GI50: 1500 nM
[10]
  Activity: < 60%
UACC-62
  GI50: 1720 nM
[11]
  Activity: < 60%
OVCAR-8
  GI50: 1920 nM
[12]
  inhibition at 0.1 µM: 6.07%
[13]
  Activity: < 60%
UACC-257
  GI50: 1720 nM
[14]
  Activity: < 60%
[15]
  inhibition: < 60%
[16]
  inhibition: < 60%
[17]
  Activity: < 60%
[18]
  GI50: 1620 nM
  TGI: 3470 nM
[18]; read-out: LC50 (the source's name)
  CC50: 8130 nM
[19]
  Activity: < 60%
[20]
  Activity: < 60%
[21]
  Activity: < 60%
[22]
  inhibition: < 60%
LOX IMVI
  GI50: 1560 nM
SR
  GI50: 540 nM
[23]
  Activity: < 60%
[24]
  inhibition: < 60%
K562
  GI50: 1620 nM
[25]
  inhibition: < 60%
[26]
  GI50: > 10000 nM
[27]
  inhibition at 1 µM: 12.7%
